In patent US8143248B2, “Tricyclic N-heteroaryl-carboxamide derivatives containing a benzimidazole unit, method for preparing same and their therapeutic use” (Sanofi-Aventis, priority 2006, dated 2012):

How the values were obtained:
TRPV1 receptor = target: T1, TRPV1 receptor (Rattus norvegicus, UniProt O35433); assay: Test for inhibition of the current induced by capsaicin on rat DRGs (whole-cell patch-clamp); type: cell-based; details: DRG neuron; compound at 10 nM; % inhibition of the control capsaicin response; newborn rat DRG neurons
T1 construct: The neurons of the DRG naturally express the TRPV1 receptor; endogenous in cells; host or cells: primary culture of newborn rat dorsal root ganglion neurons
Experimental: Test for Inhibition of the Current Induced by Capsaicin on Rat DRGs
Primary Culture of Rat Dorsal Root Ganglion (DRG) Cells:
The neurons of the DRG naturally express the TRPV1 receptor.
Newborn rat DRG primary cultures are prepared from 1-day-old rat pups. Briefly, after dissection, the ganglia are trypsinized and the cells are mechanically dissociated by controlled trituration. The cells are resuspended in an Eagle's basal culture medium containing 10% of fetal calf serum, 25 mM KCl, 2 mM glutamine, 100 μg/ml gentamicin and 50 ng/ml of NGF, and then deposited onto laminin-coated glass cover slips (0.25×10^6 cells per cover slip) which are then placed in 12-well Corning dishes. The cells are incubated at 37° C. in a humidified atmosphere containing 5% CO2 and 95% air. […]
The measuring chambers (volume 800 μl) containing the cell preparation are placed on the platform of an inverted microscope (Olympus IMT2) equipped with Hoffman optics (Modulation Contrast, New York), and observed at the magnification of ×400. […] The overall currents (membrane potential fixed at −60 mV) are recorded with an Axopatch 1D amplifier (Axon Instruments, Foster City, Calif.), connected to a PC controlled by Pclamp8 software (Axon Instrument). The current traces are recorded on paper and simultaneously digitized (sampling frequency 15 to […]) and acquired on the hard drive of the PC. […]

TRPV1 receptors = target: T2, TRPV1 receptors (Mus musculus, UniProt Q704Y3); assay: Mouse corneal irritation test (capsaicin-induced eye rubbing); type: in vivo; details: compound 500 μM, 2 μl on the cornea 10 minutes before capsaicin 160 μM; eye rubs counted over 2 minutes
T2 construct: application of a very small amount of capsaicin (2 μl at a concentration of 160 μM) to the surface of the cornea of an animal; from tissue; host or cells: mouse cornea in vivo (C fibres)
Experimental: Mouse Corneal Irritation Test
The irritant nature of capsaicin can be readily assessed at the level of the cornea since this organ is one of the most innervated by C fibers. In this context, according to the preliminary experiments, the application of a very small amount of capsaicin (2 μl at a concentration of 160 μM) to the surface of the cornea of an animal results in a certain number of stereotyped behaviors associated with the irritation and that can be readily listed. Among these are: blinking of the eye, rubbing of the eye instilled with the ipsilateral forelimb, rubbing of the face with both forelimbs, scratching of the ipsilateral face with the hind limb. […] Its appearance is, moreover, also normal. […] It can be concluded from this that the duration of action of capsaicin at these doses is less than 2 minutes.
Summary of the Methodology:
The principle of the series of experiments is to determine whether the compounds of the invention can influence the behavioral response induced by a given amount of capsaicin. The capsaicin is initially diluted to 25 mM in DMSO and diluted, for its final use, in physiological saline with 10% Tween 80. It appears, based on control studies, that, under these conditions, the solvent has no effect.
In practice, the product to be tested, prepared at 25 mM in DMSO and diluted for its final use in physiological saline with 10% Tween 80, at the highest concentration of 500 μM, is administered by local application to the surface of the cornea in a volume of 2 μl, 10 minutes before the application of the capsaicin. The animal receives the ocular instillation of 2 μl of a solution of capsaicin at […] prepared as indicated above. Over the course of a period of observation of 2 minutes following the instillation, the number of times the instilled eye is rubbed by the ipsilateral forelimb is counted for each animal.
For a given group, the percentage protection is calculated as follows: P=100−((average number of scratches of the group treated with the compound/average number of scratches of the group treated with the solvent)×100). […]

T2 sequence (Q704Y3 whole entry): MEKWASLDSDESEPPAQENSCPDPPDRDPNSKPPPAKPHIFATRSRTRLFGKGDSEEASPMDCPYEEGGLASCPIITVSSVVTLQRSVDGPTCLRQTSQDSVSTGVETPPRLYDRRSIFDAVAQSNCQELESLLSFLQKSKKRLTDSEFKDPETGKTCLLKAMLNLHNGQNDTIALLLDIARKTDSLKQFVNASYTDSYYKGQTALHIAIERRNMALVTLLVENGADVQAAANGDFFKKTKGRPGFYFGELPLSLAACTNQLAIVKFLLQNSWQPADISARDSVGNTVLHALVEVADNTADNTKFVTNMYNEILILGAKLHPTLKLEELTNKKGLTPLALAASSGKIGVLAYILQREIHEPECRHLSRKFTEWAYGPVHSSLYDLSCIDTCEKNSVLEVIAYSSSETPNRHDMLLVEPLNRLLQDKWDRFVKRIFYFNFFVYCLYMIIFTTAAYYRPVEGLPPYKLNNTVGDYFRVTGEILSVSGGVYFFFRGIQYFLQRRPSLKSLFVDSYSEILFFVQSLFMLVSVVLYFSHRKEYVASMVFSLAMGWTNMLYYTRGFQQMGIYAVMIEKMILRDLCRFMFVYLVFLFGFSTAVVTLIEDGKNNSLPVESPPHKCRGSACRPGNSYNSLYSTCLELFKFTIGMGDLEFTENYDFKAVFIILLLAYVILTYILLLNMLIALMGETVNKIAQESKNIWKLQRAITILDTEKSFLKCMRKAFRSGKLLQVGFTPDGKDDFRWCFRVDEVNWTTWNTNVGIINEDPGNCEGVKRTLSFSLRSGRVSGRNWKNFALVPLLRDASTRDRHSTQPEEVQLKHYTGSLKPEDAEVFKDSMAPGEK
T1 sequence (O35433 whole entry): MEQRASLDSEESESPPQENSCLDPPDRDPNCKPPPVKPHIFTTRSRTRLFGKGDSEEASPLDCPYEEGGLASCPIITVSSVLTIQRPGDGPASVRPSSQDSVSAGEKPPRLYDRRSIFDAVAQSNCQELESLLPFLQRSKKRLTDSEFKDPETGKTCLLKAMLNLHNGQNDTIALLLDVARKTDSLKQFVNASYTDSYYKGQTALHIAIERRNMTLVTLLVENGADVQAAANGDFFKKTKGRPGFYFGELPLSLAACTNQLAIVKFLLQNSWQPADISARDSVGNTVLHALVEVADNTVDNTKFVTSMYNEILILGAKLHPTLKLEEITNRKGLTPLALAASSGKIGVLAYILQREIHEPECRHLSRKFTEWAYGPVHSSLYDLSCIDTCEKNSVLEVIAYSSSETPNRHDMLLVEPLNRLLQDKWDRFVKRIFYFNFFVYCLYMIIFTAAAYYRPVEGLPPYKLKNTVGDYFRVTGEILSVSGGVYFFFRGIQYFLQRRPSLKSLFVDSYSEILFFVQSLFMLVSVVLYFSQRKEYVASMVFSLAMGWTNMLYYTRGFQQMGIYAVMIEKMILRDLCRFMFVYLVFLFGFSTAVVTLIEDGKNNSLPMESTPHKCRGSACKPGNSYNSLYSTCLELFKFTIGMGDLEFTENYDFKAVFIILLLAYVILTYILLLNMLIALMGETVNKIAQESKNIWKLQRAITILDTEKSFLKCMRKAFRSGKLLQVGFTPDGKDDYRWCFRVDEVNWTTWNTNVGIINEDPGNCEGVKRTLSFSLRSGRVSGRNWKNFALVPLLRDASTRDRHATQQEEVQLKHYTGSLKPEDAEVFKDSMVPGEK

| Structure (SMILES) | inhibition at 0.01 µM (TRPV1 receptor) [%] | % P 500 μM (percentage protection) (TRPV1 receptors) [%] | further results |
| --- | --- | --- | --- |
| O=C(Nc1ccc2nc3ncccn3c2c1)c1cc2cc(F)ccc2n1Cc1cccc(F)c1 |  |  | melting point: 295 to 298 °C |
| O=C(Nc1ccc2c(c1)nc1n2CCCC1)c1cc2cc(F)ccc2n1Cc1ccncc1 [Compound 1, N-(1,2,3,4-tetrahydropyrido[1,2-a]benzimidazol-7-yl)-5-fluoro-1-[(pyridin-4-yl)methyl]-1H-indole-2-carboxamide] | 37 |  |  |
| O=C(Nc1ccc2c(c1)nc1n2CCC1)c1cc2cc(F)ccc2n1Cc1ccncc1 [Compound 5, N-(2,3-dihydro-1H-pyrrolo[1,2-a]benzimidazol-6-yl)-5-fluoro-1-[(pyridin-4-yl)methyl]-1H-indole-2-carboxamide] | 53 |  |  |
| O=C(Nc1ccc2c(c1)nc1n2CCC1)c1cc2cc(C(F)(F)F)cnc2n1Cc1ccccc1 [Compound 8, N-(2,3-dihydro-1H-pyrrolo[1,2-a]benzimidazol-6-yl)-1-benzyl-5-trifluoromethyl-1H-pyrrolo[2,3-b]pyridine-2-carboxamide] |  | 71 |  |
| O=C(Nc1ccc2nc3n(c2c1)CCOC3)c1cc2cc(F)ccc2n1Cc1cccc(F)c1 [Compound 15, N-(3,4-dihydro-1H-oxazino[1,4][4,3-a]benzimidazol-7-yl)-5-fluoro-1-(3-fluorobenzyl)-1H-indole-2-carboxamide] |  | 56 |  |
| CC1CN=C2Nc3ccc(NC(=O)c4cc5cc(F)ccc5n4Cc4cccc(F)c4)cc3N21 (stereo not drawn) [Compound 26, N-(2,3-dihydro-3-methylimidazo[1,2-a]benzimidazol-6-yl)-5-fluoro-1-(3-fluorobenzyl)-1H-indole-2-carboxamide] |  | 46 |  |
